Experiments:
Type in all cases: cell-based
[1] = biological target: T1, OR10Q1 (Homo sapiens, UniProt Q8NGQ4); assay: Ca-imaging of OR10Q1-transfected HEK293 cells; parameters: key to OR10Q1 responded to odorant: ▪: 18 olfactory receptors responded to 32 odorants in related with specific anosmia; settings: for Response of OR10Q1 to odorant, in words: single odorants 200 μM
T1 construct: specific primers, which amplify the complete open reading frame; expressed in transfected cells; host or cells: HEK293
T1 sequence (Q8NGQ4 1-319): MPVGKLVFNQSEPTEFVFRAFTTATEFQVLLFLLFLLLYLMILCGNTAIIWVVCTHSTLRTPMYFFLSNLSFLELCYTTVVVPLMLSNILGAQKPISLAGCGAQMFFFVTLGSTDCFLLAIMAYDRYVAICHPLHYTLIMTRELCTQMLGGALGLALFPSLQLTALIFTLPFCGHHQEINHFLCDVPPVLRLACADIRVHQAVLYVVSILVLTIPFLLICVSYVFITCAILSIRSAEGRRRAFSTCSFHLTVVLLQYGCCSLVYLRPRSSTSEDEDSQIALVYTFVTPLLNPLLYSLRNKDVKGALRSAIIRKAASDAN
Method: (§1) HEK293 cells were cultivated in Petri dishes (Ø35 mm) as previously described (Benbernou et al. 2007). We grow up HEK293 cells in culture medium containing standard DMEM with 10% heat-inactivated fetal bovine serum, 2 mM L-glutamine, 100 units/ml penicillin, and 100 units/ml streptomycin in a humidified atmosphere (37° C., 5% CO2). After 2-3 days, the transfection process was carried out, whereby the cell culture was 70-80% confluent. The calciumphosphate method was applied to transfect DNA plasmid transiently in HEK293 cells in case of Ca-imaging method.
(§2) Calcium cations and phosphate anions created crystal precipitations coupled with DNA which could invade into the cells through endocytosis. Cells were transiently transfected with plasmid DNA which consists of pCI expression vector and PCR-amplified full-length cDNA of olfactory receptors candidates, and also Gα15, RTP1, Myr-Ric8A, HSC70, and m-Cherry as cofactors. The precipitation could be created after 15-20 min, with dropping the transfection solution on HEK293 cells. Before measuring by Ca-imaging cells were incubated 48-60 hours at 370 C, 5% CO2. Cationic liposome-mediated transfection method was applied to transfect DNA plasmid transiently in HANA3A cells in case of CRE-Luciferase and CRE-SEAP assays.
(§3) Calcium imaging of the transfected HEK293 cells was done by using chambers determinate an inverted microscope (Olympus; IX70) using a 10× objective (CPIanFL N Olympus). Fluorescence emission was determined every 4 s by using a CCD camera (Charge Coupled Device, C9100 Hamamatsu). The capillary tube which was responsible to supply odorants was generated closely above the cells. The columns filled with odorants, DMSO and ATP. Odorants were manually monitored to drop each 4-5 s to transfected cells. Solutions with drop wise form spread on HEK293 cells in 35 mm dishes.
(§4) In experiments, Fura-2 Acetoxymethylester (Fura-2/AM) was applied. The non-polar Fura2/AM is fluorescent but not yet calcium-sensitive. Once diffuses into cell plasma, Fura-2/AM is hydrolyzed to Fura-2 which is calcium-sensitive and functions as Ca2+ chelator. Regardless of the presence of calcium, Fura-2 emits at the wavelength of 510 nm. Once Fura-2 binds to free intracellular Ca2+ in cell plasma, its ratio of excitation at wavelengths of 340 nm and 380 nm is changed and correlated to the amount of intracellular Ca2+. According to this feature, the analysis of 340/380 nm excitation ratio for Fura-2 allows to quantify intracellular calcium levels.
(§5) In preparation for Ca-imaging measurements, transfected HEK293 cells were added 3 it Fura2/AM (3 μM) and incubated 30-45 min at 370 C, 5% CO2. After this step, experiments were carried out in a dark condition (Fura-2 is light-sensitive). After the incubation, medium of cell culture was replaced with 2 ml Ringer's solution.
(§6) Odorants were freshly prepared with DMSO as 1 M stocks solutions. Six mixtures (200 μM each chemical) were applied to cells sequentially (20 s each mixture/30 s Ringer). Those ORs tested with single odorants that had generated a response to odorant mixture group previously. Odorants were prepared in 100-200 μM concentration.
(§7) Ringer's solution was used for washing cells between measuring by two different odorants. Positive response was determined by the timing of the response, the strength of the response (more than twofold higher than the noise amplitude of the baseline), and the shape of the response curve (sharp rise in curve with gradual recovery). […]

[2] = system: HEK293 cells transfected with all cofactors and pCI plasmids without ORs; assay: Ca-imaging of control HEK293 cells without OR
How it was run: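 HEK293 cells transfected by calcium phosphate with empty pCI plus Gα15, RTP1, Myr-Ric8A, HSC70 and mCherry, incubated 48–60 h, then loaded with 3 µM Fura-2/AM for 30–45 min. Odorants in Ringer's applied as mixtures at 200 µM each or singly at 100–200 µM, with 0.25 mM ATP at the end. Ca2+ followed as 340/380 nm ratio every 4 s; responses as ΔF/F0, judged by timing, amplitude above twice baseline noise and curve shape.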

[3] = biological target: T2, OR4K2 (Homo sapiens, UniProt Q8NGD2); assay: Ca-imaging of OR4K2-transfected HEK293 cells; parameters: key to OR4K2 responded to odorant: ▪: 18 olfactory receptors responded to 32 odorants in related with specific anosmia
T2 construct: specific primers, which amplify the complete open reading frame; expressed in transfected cells; host or cells: HEK293
T2 sequence (Q8NGD2 1-314): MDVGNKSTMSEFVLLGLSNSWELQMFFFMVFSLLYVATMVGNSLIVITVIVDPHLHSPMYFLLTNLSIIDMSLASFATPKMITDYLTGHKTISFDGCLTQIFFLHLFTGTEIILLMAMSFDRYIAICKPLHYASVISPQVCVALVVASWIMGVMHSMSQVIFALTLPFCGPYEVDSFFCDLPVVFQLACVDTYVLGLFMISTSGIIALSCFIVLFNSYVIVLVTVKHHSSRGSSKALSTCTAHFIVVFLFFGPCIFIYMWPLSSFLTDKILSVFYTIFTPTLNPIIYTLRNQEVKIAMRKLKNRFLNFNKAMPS
Method: as §1, §2, §3, §4, §5, §6, §7

O=C1CCCCCCCCCCCCCCO1 [Pentadecanolide, ω-cyclopentadecanolide]
OR10Q1 responded to odorant ([1]; Ca-imaging, HEK293 cells, individual odorant 200 μM, significant response p<0.05): ▪
Response of OR10Q1 to odorant, in words ([1]; Ca-imaging): responded
Response of OR10Q1 to odorant, in words ([1]; Ca-imaging, listed as Cyclopentadecanolide): significantly responded
Response of OR10Q1 to odorant, in words ([1]; Ca-imaging, listed as Pentadecalactone): responded
Number of cell responses, Experiment (OR10Q1) ([1]; odorant 200 μM, approximately 2000 transfected cells in three times of measuring (Table 4, FIG. 5)): 52
Response of control cells, in words ([2]; 200 μM (FIG. 13)): did not respond
Number of cell responses, Control ([2]; odorant 200 μM, three times of measuring (Table 4, FIG. 5)): 2
OR4K2 responded to odorant ([3]; HEK293 cells, individual odorant 200 μM, significant response p<0.05): ▪
Response of OR4K2 to odorant, in words ([3]; single odorants 200 μM): responded
